According to patent US20060004087A1, “Tetracyclic compounds as estrogen ligands” (Wyeth, priority 2004, published 2006):

Assays:
[1] = biological target: T1, human ERβ (Homo sapiens, UniProt Q92731); experiment: Competition with [3H]-17β-estradiol for ERβ ligand binding domain; details: E. coli lysate expressing ER ligand binding domains (D, E, & F); 2 nM [3H]-17β-estradiol; 5-15 hours at room temperature
T1 construct: made in house; host or cells: E. coli (crude lysate)
Protocol: (§1) This test procedure provides the methodology for one to determine whether a particular compound binds to the ER (and is therefore, “estrogenic”) and whether there is selectivity for ERα or ERβ. […] The procedure used is described briefly below. A crude lysate of E. coli expressing the ER ligand binding domains (D, E, & F) of human ERα or ERβ was prepared. Both ERs and compounds were diluted in 1× Dulbecco's Phosphate Buffered Saline (DPBS) supplemented with 1 mM EDTA. […] After between 5 and 15 hours at room temperature, the plates were washed with DPBS/1 mM EDTA and bound radioactivity determined by liquid scintillation counting.

[2] = biological target: T2, human ERα (Homo sapiens, UniProt P03372); experiment: Competition with [3H]-17β-estradiol for ERα ligand binding domain; details: E. coli lysate expressing ER ligand binding domains (D, E, & F); 2 nM [3H]-17β-estradiol; 5-15 hours at room temperature
T2 construct: made in house; host or cells: E. coli (crude lysate)
T2 sequence (P03372 311-547 limits assumed): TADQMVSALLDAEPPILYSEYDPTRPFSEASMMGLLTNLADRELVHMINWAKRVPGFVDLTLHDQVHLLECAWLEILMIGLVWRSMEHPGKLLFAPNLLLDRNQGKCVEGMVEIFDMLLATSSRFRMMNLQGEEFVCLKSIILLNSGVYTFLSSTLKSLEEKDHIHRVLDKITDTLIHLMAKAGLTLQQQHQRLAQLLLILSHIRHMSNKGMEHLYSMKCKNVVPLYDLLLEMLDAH
Protocol: as §1

T1 sequence (Q92731 264-498 limits assumed): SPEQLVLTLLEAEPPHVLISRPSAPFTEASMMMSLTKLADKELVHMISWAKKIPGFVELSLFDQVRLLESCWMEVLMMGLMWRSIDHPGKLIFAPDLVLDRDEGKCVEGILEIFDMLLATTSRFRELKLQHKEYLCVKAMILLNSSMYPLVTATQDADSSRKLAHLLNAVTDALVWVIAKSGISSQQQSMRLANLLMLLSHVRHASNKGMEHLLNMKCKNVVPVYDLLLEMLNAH

Row | Compound | IC50 [1] [nM] | IC50 [2] [nM] | melting point [°C]
1 | 2,9-DIHYDROXY-5,6-DIHYDRO-BENZO[B]NAPHTHO[2,1-D]FURAN-10-BENZONITRILE [Example 12] | 757 | 2790 | –
2 | Oc1ccc2c(c1)CCc1c-2oc2cc(O)ccc12 [Example 1, 5,6-DIHYDRO-BENZO[B]NAPHTHO[2,1-D]FURAN-3,9-DIOL] | 3 | 18 | –
3 | Oc1ccc2c(ccc3c4ccc(O)cc4oc23)c1 [Example 2, BENZO[B]NAPHTHO[2,1-D]FURAN-3,9-DIOL] | 1 | 12 | –
4 | Oc1ccc2c(c1)oc1c3ccc(O)cc3c(Br)cc21 [Example 3, 5-BROMO-BENZO[B]NAPHTHO[2,1-D]FURAN-3,9-DIOL] | 12 | 70 | –
5 | N#Cc1cc(O)cc2c3c(oc12)-c1ccc(O)cc1CC3 [Example 4, 3,8-DIHYDROXY-5,6-DIHYDRO-BENZO[B]NAPHTHO[2,1-D]FURAN-10-CARBONITRILE] | 1.2 | 150 | 355 to 358
6 | N#Cc1cc(O)cc2c3c(oc12)-c1ccc(O)cc1CCC3 [Example 5, 3,9-DIHYDROXY-6,7-DIHYDRO-5H-12-OXA-DIBENZO[A,E]AZULEN-11-CARBONITRILE] | 17 | 1500 | –
7 | N#Cc1c(O)ccc2c3c(oc12)-c1ccc(O)cc1CC3 [Example 6, 3,9-DIHYDROXY-5,6-DIHYDRO-BENZO[B]NAPHTHO[2,1-D]FURAN-10-CARBONITRILE] | 5 | 82 | > 300
8 | N#Cc1c(O)ccc2c1oc1c3ccc(O)cc3ccc21 [Example 7, 3,9-DIHYDROXY-BENZO[B]NAPHTHO[2,1-D]FURAN-10-CARBONITRILE] | 3 | 55 | > 300
9 | Oc1ccc2c(c1)OCc1c-2oc2ccc(O)cc12 [Example 9, 6H-BENZO[4,5]FURO[3,2-C]CHROMEN-3,8-DIOL] | 4 | 129 | –
10 | N#Cc1cc(O)cc2c3c(oc12)-c1ccc(O)cc1OC3 [Example 10, 3,8-DIHYDROXY-6H-BENZO[4,5]FURO[3,2-C]CHROMENE-10-CARBONITRILE] | 2 | 159 | –
11 | Oc1ccc2c(c1)OCc1c-2oc2c(Br)cc(O)cc12 [Example 11, 10-BROMO-6H-BENZO[4,5]FURO[3,2-C]CHROMENE-3,8-DIOL] | 1 | 42 | –
12 | N#Cc1c(O)ccc2c1oc1c3cc(O)ccc3ccc21 [Example 13, 2,9-DIHYDROXY-BENZO[B]NAPHTHO[2,1-D]FURAN-10-CARBONITRILE] | – | – | 291 to 295
